According to the supplement of paper PMC10307832:

What was measured:
Experiment in all cases: relative viability (nuclei count vs DMSO), 5 days (fraction); higher = more cells survive
[1] = compound: C1CCC(CC1)N(CCNCCC2=C3C(=C(C=C2)O)NC(=O)CO3)C(=O)CCNCCC4=CC(=C(C=C4)Cl)Cl [AZ505] + CCNC(=O)c1noc(-c2cc(C(C)C)c(O)cc2O)c1-c1ccc(CN2CCOCC2)cc1 [Luminespib] (partner 0.01 µM)
Method in brief: (§1)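 Nuclei were stained with Hoechst during a one-step fixation (final 0.05% Triton X-100, 1% formaldehyde, 1 ug/ml Hoechst) carried out 5 days after dosing, then counted on 4× images. The cells, lung cancer lines in 1536-well plates, had been dosed by pin tool the day after seeding with one drug alone or a fixed anchor-drug dose plus five library-drug doses (not always all listed) in √10 steps. Relative viability is the nuclei count in treated wells divided by that in vehicle wells, and each value is the median of duplicate plates.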

[2] = compound: C1CCC(CC1)N(CCNCCC2=C3C(=C(C=C2)O)NC(=O)CO3)C(=O)CCNCCC4=CC(=C(C=C4)Cl)Cl [AZ505] + O=C(c1cc(Cc2n[nH]c(=O)c3ccccc23)ccc1F)N1CCN(C(=O)C2CC2)CC1 [Olaparib] (partner 8 µM)
Method in brief: as §1

[3] = compound: Cn1c(=O)n(-c2ccc(C(C)(C)C#N)cc2)c2c3cc(-c4cnc5ccccc5c4)ccc3ncc21 [Dactolisib] + CS(=O)(=O)N1CCN(Cc2cc3nc(-c4cccc5[nH]ncc45)nc(N4CCOCC4)c3s2)CC1 [Pictilisib] (partner 1 µM)
Method in brief: as §1

[4] = compound: Cn1c(=O)n(-c2ccc(C(C)(C)C#N)cc2)c2c3cc(-c4cnc5ccccc5c4)ccc3ncc21 [Dactolisib] + NC(=O)Nc1cc(-c2cccc(F)c2)sc1C(=O)N[C@H]1CCCNC1 [AZD7762] (partner 0.2 µM)
Method in brief: as §1

Cell Line | relative viability ([1]; first compound 0.08 µM) | relative viability ([1]; first compound 0.253 µM) | relative viability ([1]; first compound 0.8 µM) | relative viability ([1]; first compound 2.53 µM) | relative viability ([1]; first compound 8 µM) | relative viability ([2]; first compound 0.08 µM) | relative viability ([2]; first compound 0.8 µM) | relative viability ([2]; first compound 2.53 µM) | relative viability ([2]; first compound 8 µM) | relative viability ([3]; first compound 0.002 µM) | relative viability ([3]; first compound 0.006325 µM) | relative viability ([3]; first compound 0.02 µM) | relative viability ([3]; first compound 0.06325 µM) | relative viability ([3]; first compound 0.2 µM) | relative viability ([4]; first compound 0.002 µM) | relative viability ([4]; first compound 0.006325 µM) | relative viability ([4]; first compound 0.02 µM) | relative viability ([4]; first compound 0.06325 µM) | relative viability ([4]; first compound 0.2 µM) | relative viability ([2]; first compound 0.253 µM)
NCI-H322M | 0.931 | 0.84 | 0.798 | 0.819 | 0.918 | 0.576 | 0.707 | 0.768 | 0.844 | 0.504 | 0.564 | 0.34 | 0.448 | 0.461 | 0.524 | 0.547 | 0.424 | 0.425 | 0.408 | –
NCI-H3122 | 0.0979 | 0.0993 | 0.0953 | 0.0964 | 0.0997 | 0.617 | 0.618 | 0.629 | 0.622 | 0.59 | 0.608 | 0.575 | 0.442 | 0.336 | 0.971 | 0.892 | 1 | 0.953 | 0.488 | 0.689
NCI-H2087 | 0.171 | 0.191 | 0.217 | 0.154 | 0.238 | 0.515 | 0.552 | 0.629 | 0.611 | 1.02 | 0.867 | 0.714 | 0.463 | 0.336 | 1.24 | 1.35 | 1.67 | 0.707 | 0.597 | 0.536
LC-2-ad | 0.927 | 0.881 | 1.06 | 0.868 | 1.16 | 0.683 | 0.648 | 0.713 | 0.741 | 0.291 | – | 0.428 | 0.389 | 0.262 | 0.812 | 0.816 | 0.86 | 0.71 | 0.593 | 0.696
NCI-H1915 | 0.769 | 0.928 | 0.75 | 0.783 | 0.986 | 0.259 | 0.247 | 0.272 | 0.257 | 1.01 | 0.952 | 0.944 | 0.513 | 0.483 | 0.654 | 0.67 | 0.696 | 0.664 | 0.597 | 0.272
NCI-H1793 | 0.199 | 0.173 | 0.179 | – | 0.167 | 0.696 | 0.769 | 0.772 | 0.972 | 0.311 | 0.315 | 0.175 | 0.211 | 0.203 | 0.44 | 0.361 | 0.38 | 0.246 | 0.11 | 0.885
RERF-LC-KJ | 1.24 | 1.33 | 1.22 | 1.2 | 1.03 | 0.947 | 0.995 | 0.91 | 0.842 | 0.562 | 0.519 | 0.466 | 0.41 | 0.293 | 1.02 | 0.922 | 0.818 | 0.572 | 0.489 | 0.934
LXF-289 | 0.663 | 0.685 | 0.668 | 0.73 | 0.818 | 0.988 | 1.01 | 1.05 | 1.01 | 0.9 | 0.851 | 0.749 | 0.673 | 0.613 | 1.14 | 1.13 | 1.19 | 1.14 | 0.862 | 1.11
PC-14 | 0.135 | 0.215 | 0.135 | 0.145 | 0.132 | 0.302 | 0.248 | 0.324 | 0.241 | 0.9 | 0.586 | 0.412 | 0.196 | 0.0762 | 0.348 | 0.368 | 0.333 | 0.176 | 0.135 | 0.255
NCI-H650 | 0.726 | 0.777 | 0.835 | 0.774 | 0.709 | 0.386 | 0.425 | 0.497 | 0.356 | 0.86 | 0.771 | 0.704 | 0.558 | 0.451 | 1.04 | 1.07 | 0.9 | 0.79 | 0.469 | 0.462
NCI-H1666 | 0.974 | 0.952 | 0.931 | 0.987 | 0.997 | 0.736 | 0.721 | 0.731 | 0.764 | 0.417 | 0.405 | 0.438 | 0.383 | 0.366 | 0.81 | 0.98 | 0.807 | 0.727 | 0.656 | 0.812
NCI-H2085 | 0.378 | 0.41 | 0.423 | 0.4 | 0.403 | 0.715 | 0.654 | 0.735 | 0.729 | 0.372 | 0.472 | 0.352 | 0.332 | 0.396 | 0.984 | 0.9 | 0.877 | 0.731 | 0.281 | 0.797
NCI-H1734 | 0.234 | 0.197 | 0.221 | 0.232 | 0.161 | 0.603 | 0.613 | 0.63 | 0.641 | 0.468 | 0.395 | 0.39 | 0.26 | 0.216 | 0.542 | 0.428 | 0.447 | 0.146 | 0.131 | 0.673
NCI-H2126 | 0.771 | 0.889 | 0.903 | 0.943 | 1.02 | 0.841 | 0.827 | 0.878 | 0.948 | 0.563 | 0.461 | 0.434 | 0.425 | 0.368 | 0.946 | 0.925 | 0.949 | 0.803 | 0.623 | 0.915
EMC-BAC-2 | 1.14 | 1.13 | 1.23 | 1.03 | 1.19 | 0.453 | 0.487 | 0.524 | 0.437 | 0.528 | 0.542 | 0.512 | 0.379 | 0.341 | 1.14 | 0.955 | 0.984 | 0.662 | 0.607 | 0.541
NCI-H1993 | 0.842 | 0.795 | 0.716 | 0.911 | 0.861 | 0.995 | 1.14 | 1.01 | 1.16 | 0.99 | 0.85 | 0.804 | 0.705 | 0.834 | 0.735 | 0.507 | 0.53 | 0.335 | 0.387 | 1.12
